# Experimental data as given in US4454330A, “Two-functional-group-containing terpenoids, processes for the preparation of the same, and anti-ulcer agents containing the same” (Eisai Co., Ltd., priority 1980, dated 1984).
# Test system: cold-restaint stress ulcer
# Assay: Effect on cold-restraint stress ulcer (Levine' method, rats)
# Format: in vivo, rats (SD family
# Conditions: SD rats, female, about 170 g, 8-10 weeks age
# Experimental: (1) Effect on Cold-Restaint Stress Ulcer
# The inhibition effect of the test compound on the cold-restaint stress ulcer was determined according to the Levine' method using rats (SD family, female, weight about 170 g, 8-10 weeks age). The test compounds are set forth below.
row,Compound,Inhibition Ratio (%) on the occurrence of the cold restrictive stress ulcer
1,"CC(=CCO)CCC=C(C)CCC=C(C)C(=O)O [Compound A, 12-Hydroxy-2,6,10-trimethyl-2,6,10-dodecatrienoic acid]",74.6%
2,"CC(=CCO)CCC=C(C)CCC=C(C)CCC=C(C)C(=O)O [Compound C, 16-Hydroxy-2,6,10,14-tetramethyl-2,6,10,14-hexadecatetraenoic acid]",79.2%
3,"CC(=CCO)CCC=C(C)CCC=C(C)CCC=C(C)CCC=C(C)C(=O)O [Compound D, 20-Hydroxy-2,6,10,14,18-pentamethyl-2,6,10,14,18-eicosapentaenoic acid]",49.5%
